We go through 17 compounds from patent US10508088B2, “Methods using HDAC11 inhibitors” (FORMA Therapeutics, Inc., priority 2016, dated 2019).

Structures are written as SMILES. pIC50: −log10 of the molar value.

For the test, the target named is Recombinant N-terminal GST tag full-length human HDAC11 (Homo sapiens (Human), UniProt Q96DB2). In words: Probe binding HDAC11 assay, time resolved fluorescence (TRF). The following applies: read-out: HDAC11 IC50 Range. As to the method: The probe binding HDAC11 assay was performed using a time resolved fluorescence (TRF) assay format. Recombinant N-terminal GST tag full-length human HDAC11 was expressed and purified from baculovirus in Sf9 insect cells (SignalChem, # H93-30G-1000). Each assay was performed in 1536 black well microplates (Corning, #3936) in a final volume of 8 μL in assay buffer containing 50 mM HEPES (pH 7.5), 50 mM KCl, 50 mM NaCl, 0.5 mM GSH (L-Glutathione reduced, Sigma #G4251), 0.03% BGG (0.22 μM filtered, Sigma, #G7516-25G), and 0.01% Triton X-100 (Sigma, #T9284-10L). 100 nL of 10-point, 3-fold serial dilution in DMSO was pre-dispensed into respective wells of 1536 assay plates for a final test concentration range of 25 μM to 1.3 nM respectively. The final concentration in the assay of HDAC11 and probe (a fluorescein labeled HDAC 11 inhibitor) was 2.5 nM and 20 nM respectively. 4 μL of 2× probe and 2× anti-GST Terbium (Cisbio, #61GSTXLB) was added to assay plates followed by 4 μL of 2×HDAC11. Plates were incubated for 16 hours at room temperature before time resolved fluorescence was read on the Envision (Excitation at 340 nm, and Emission at 485 nm and 535 nm, Perkin Elmer).
Recombinant N-terminal GST tag full-length human HDAC11, sequence (Q96DB2 whole entry): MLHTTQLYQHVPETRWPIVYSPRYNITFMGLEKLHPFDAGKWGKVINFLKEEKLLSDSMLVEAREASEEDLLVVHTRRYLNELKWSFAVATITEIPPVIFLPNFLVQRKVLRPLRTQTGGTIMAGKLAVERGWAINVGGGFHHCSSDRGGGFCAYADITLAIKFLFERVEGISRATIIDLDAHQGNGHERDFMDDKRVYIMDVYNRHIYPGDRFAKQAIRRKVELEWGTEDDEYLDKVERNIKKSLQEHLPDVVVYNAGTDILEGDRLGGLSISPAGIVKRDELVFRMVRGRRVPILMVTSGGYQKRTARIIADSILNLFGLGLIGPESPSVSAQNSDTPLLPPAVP
Data from HDAC11 Assays were reported as percent inhibition (inh) compared with control wells based on the following equation: % inh=1−((FLU−AveLow)/(AveHigh−AveLow)) where FLU=measured time resolved fluorescence. AveLow=average time resolved fluorescence of no enzyme control (n=32). AveHigh=average time resolved fluorescence of DMSO control (n=32). IC50 values were determined by curve fitting of the standard 4 parameter logistic fitting algorithm included in the Activity Base software package: IDBS XE Designer Model205. Data is fitted using the Levenburg Marquardt algorithm.
In the case of `COCCn1c(Nc2cccc(C(=O)NO)c2)nc2c(OC)cccc21` [Example 24-1, N-hydroxy-3-((4-methoxy-1-(2-methoxyethyl)-1H-benzo[d]imidazol-2-yl)amino)benzamide], the pIC50 (usually −log10 of the IC50, conventionally taken in molar units) was less than 6.00. The same measure for `COCCn1c(Nc2cccc(C(=O)NO)c2)nc2cccc(OC)c21` [Example 24-2, N-hydroxy-3-((7-methoxy-1-(2-methoxyethyl)-1H-benzo[d]imidazol-2-yl)amino)benzamide]: less than 6.00; for `COCCN(c1cccc(C(=O)NO)c1)c1nc2ccccc2[nH]1` [Example 25-1, 3-((1H-benzo[d]imidazol-2-yl)(2-methoxyethyl)amino)-N-hydroxybenzamide]: less than 6.00; for `N#Cc1cc2nc(Oc3cccc(C(=O)NO)c3)[nH]c2cc1C(F)(F)F` [Example 26-1, 3-((5-cyano-6-(trifluoromethyl)-1H-benzo[d]imidazol-2-yl)oxy)-N-hydroxybenzamide]: less than 6.00. The same measure for `N#Cc1cc2nc(Cc3cccc(C(=O)NO)c3)[nH]c2cc1C(F)(F)F` [Example 27-1, 3-((5-cyano-6-(trifluoromethyl)-1H-benzo[d]imidazol-2-yl)methyl)-N-hydroxybenzamide]: greater than 6.30. `O=C(NO)c1cccc(Cc2nc3cc(Cl)c(Cl)cc3[nH]2)c1` [Example 27-2, 3-((5,6-dichloro-1H-benzo[d]imidazol-2-yl)methyl)-N-hydroxybenzamide]: the negative-log IC50 (pIC50) is greater than 6.30. The value for `O=C(NO)c1cccc(Nc2cc3cc(Cl)c(Cl)cc3[nH]2)c1` [Example 28-1, 3-((5,6-dichloro-1H-indol-2-yl)amino)-N-hydroxybenzamide] was greater than 6.30; that for `O=C(NO)c1cccc(Nc2nc3nccnc3[nH]2)c1` [Example 29-1, 3-((1H-imidazo[4,5-b]pyrazin-2-yl)amino)-N-hydroxybenzamide] was less than 6.00. The same measure for `O=C(NO)c1cccc(Nc2nc3cncnc3[nH]2)c1` [Example 30-1, 3-((9H-purin-8-yl)amino)-N-hydroxybenzamide]: less than 6.00; for `O=C(NO)c1cccc(Nc2nc3cc(Cl)c(Cl)cc3o2)n1` [Example 31-1, 6-((5,6-dichlorobenzo[d]oxazol-2-yl)amino)-N-hydroxypicolinamide]: greater than 6.30; for `O=C(NO)c1cccc(Nc2nc3ncccc3o2)c1` [Example 32-1, N-hydroxy-3-(oxazolo[4,5-b]pyridin-2-ylamino)benzamide]: less than 6.00.

Turning to `O=C(NO)c1cccc(Nc2nc3ncc(C(F)(F)F)cc3o2)c1` [Example 32-2, N-hydroxy-3-((6-(trifluoromethyl)oxazolo[4,5-b]pyridin-2-yl)amino)benzamide], the negative-log IC50 (pIC50) was greater than 6.30. The same measure for `O=C(NO)c1cccc(Nc2nc3cc(F)c(Cl)cc3[nH]2)c1` [Example 33-1, 3-((6-chloro-5-fluoro-1H-benzo[d]imidazol-2-yl)amino)-N-hydroxybenzamide]: greater than 6.30. The same measure for `Cc1cc2[nH]c(Nc3cccc(C(=O)NO)c3)nc2cc1Cl` [Example 33-2, 3-((5-chloro-6-methyl-1H-benzo[d]imidazol-2-yl)amino)-N-hydroxybenzamide]: greater than 6.30; for `O=C(NO)c1cccc(Nc2nc3cc(F)c(F)cc3[nH]2)c1` [Example 33-3, 3-((5,6-difluoro-1H-benzo[d]imidazol-2-yl)amino)-N-hydroxybenzamide]: 6.00 to 6.30. The value for `O=C(NO)c1cccc(Nc2nc3cc4c(cc3[nH]2)OCO4)c1` [Example 33-4, 3-((5H-[1,3]dioxolo[4′,5′:4,5]benzo[1,2-d]imidazol-6-yl)amino)-N-hydroxybenzamide] was less than 6.00. Consider `O=C(NO)c1cccc(Nc2nc3cc(F)c(C(F)(F)F)cc3[nH]2)c1` [Example 33-5, 3-((5-fluoro-6-(trifluoromethyl)-1H-benzo[d]imidazol-2-yl)amino)-N-hydroxybenzamide], for which the pIC50 is greater than 6.30.
